IC50 and EC50 data for 18 compounds are collected here from patent publication US9745291B2, “PRMT5 inhibitors containing a dihydro- or tetrahydroisoquinoline and uses thereof” (Epizyme, Inc., priority 2012, dated 2017).

The target in one assay is PRMT5/MEP50 (Homo sapiens (Human), UniProt O14744). In words: PRMT5 Biochemical Assay (PRMT5/MEP50 enzyme assay on peptide substrate, 3H-SAM Flashplate). The settings on record: PRMT5 biochemical assay; read-out: Biochemical IC50.
The test system of assay [1] is symmetric di-methyl arginine in Z-138 cells. Put plainly: Z-138 Methylation Assay (In Cell Western for symmetric di-methyl arginine and DNA content). It counts as cell-based. As to conditions: Homo sapiens, Z-138, Z-138 cells, read-out: ICW EC50. From the text: [formula] Where top and bottom are the normally allowed to float, but may be fixed at 100 or 0 respectively in a 3-parameter fit. The Hill Coefficient normally allowed to float but may also be fixed at 1 in a 3-parameter fit. Y is the % inhibition and X is the compound concentration. Z-138 Methylation Assay
Z-138 suspension cells were purchased from ATCC (American Type Culture Collection, Manassas, Va.). RPMI/Glutamax medium, penicillin-streptomycin, heat inactivated fetal bovine serum, and D-PBS were purchased from Life Technologies, Grand Island, N.Y., USA. Odyssey blocking buffer, 800CW goat anti-rabbit IgG (H+L) antibody, and Licor Odyssey infrared scanner were purchased from Licor Biosciences, Lincoln, Nebr., USA. Symmetric di-methyl arginine antibody was purchased from EMD Millipore, Billerica, Mass., USA. 16% Paraformaldehyde was purchased from Electron Microscopy Sciences, Hatfield, Pa., USA.
Z-138 suspension cells were maintained in growth medium (RPMI 1640 supplemented with 10% v/v heat inactivated fetal bovine serum and 100 units/mL penicillin-streptomycin) and cultured at 37° C. under 5% CO2.
Cell Treatment, in Cell Western (ICW) for Detection of Symmetric Di-Methyl Arginine and DNA Content.
Z-138 cells were seeded in assay medium at a concentration of 50,000 cells per mL to a 384-well cell culture plate with 50 μL per well. Compound (100 nL) from 384 well source plates was added directly to 384 well cell plate. Plates were incubated at 37° C., 5% CO2 for 96 hours. After four days of incubation, 40 μL of cells from incubated plates were added to poly-D-lysine coated 384 well culture plates (BD Biosciences 356697). Plates were incubated at room temperature for 30 minutes then incubated at 37° C., 5% CO2 for 5 hours. After the incubation, 40 μL per well of 8% paraformaldehyde in PBS (16% paraformaldahyde was diluted to 8% in PBS) was added to each plate and incubated for 30 minutes. Plates were transferred to a Biotek 405 plate washer and washed 5 times with 100 μL per well of wash buffer (1×PBS with 0.1% Triton X-100 (v/v)). Next 30 μL per well of Odyssey blocking buffer were added to each plate and incubated 1 hour at room temperature. Blocking buffer was removed and 20 μL per well of primary antibody was added (symmetric di-methyl arginine diluted 1:100 in Odyssey buffer with 0.1% Tween 20 (v/v)) and plates were incubated overnight (16 hours) at 4° C. Plates were washed 5 times with 100 μL per well of wash buffer. Next 20 μL per well of secondary antibody was added (1:200 800CW goat anti-rabbit IgG (H+L) antibody, 1:1000 DRAQ5 (Biostatus limited) in Odyssey buffer with 0.1% Tween 20 (v/v)) and incubated for 1 hour at room temperature. The plates were washed 5 times with 100 μL per well wash buffer then 1 time with 100 μL per well of water. Plates were allowed to dry at room temperature then imaged on the Licor Odyssey machine which measures integrated intensity at 700 nm and 800 nm wavelengths. Both 700 and 800 channels were scanned.
First, the ratio for each well was determined by:
Each plate included fourteen control wells of DMSO only treatment (minimum inhibition) as well as fourteen control wells for maximum inhibition treated with 3 μM of a reference compound (Background wells). The average of the ratio values for each control type was calculated and used to determine the percent inhibition for each test well in the plate. Reference compound was serially diluted three-fold in DMSO for a total of nine test concentrations, beginning at 3 μM. Percent inhibition was determined and IC50 curves were generated using triplicate wells per concentration of compound. […]

The test system of a further assay is Z-138 cell line. In words: Z-138 Proliferation Assay (Cell Titer Glo, 5 days). The format is cell-based. As to conditions: Homo sapiens, Z-138, 120 h, Z-138 cells. From the text: [formula] Z-138 Proliferation Assay
Z-138 suspension cells were purchased from ATCC (American Type Culture Collection, Manassas, Va.). RPMI/Glutamax medium, penicillin-streptomycin, heat inactivated fetal bovine serum were purchased from Life Technologies, Grand Island, N.Y., USA. V-bottom polypropylene 384-well plates were purchased from Greiner Bio-One, Monroe, N.C., USA. Cell culture 384-well white opaque plates were purchased from Perkin Elmer, Waltham, Mass., USA. Cell-Titer Glo® was purchased from Promega Corporation, Madison, Wis., USA. SpectraMax M5 plate reader was purchased from Molecular Devices LLC, Sunnyvale, Calif., USA.
Z-138 suspension cells were maintained in growth medium (RPMI 1640 supplemented with 10% v/v heat inactivated fetal bovine serum and cultured at 37° C. under 5% CO2 Under assay conditions, cells were incubated in assay medium (RPMI 1640 supplemented with 10% v/v heat inactivated fetal bovine serum and 100 units/mL penicillin-streptomycin) at 37° C. under 5% CO2.
For the assessment of the effect of compounds on the proliferation of the Z-138 cell line, exponentially growing cells were plated in 384-well white opaque plates at a density of 10,000 cells/ml in a final volume of 50 μl of assay medium. A compound source plate was prepared by performing triplicate nine-point 3-fold serial dilutions in DMSO, beginning at 10 mM (final top concentration of compound in the assay was 20 μM and the DMSO was 0.2%). A 100 nL aliquot from the compound stock plate was added to its respective well in the cell plate. […] After addition of compounds, assay plates were incubated for 5 days at 37° C., 5% CO2, relative humidity >90%.
Cell viability was measured by quantitation of ATP present in the cell cultures, adding 35 μl of Cell Titer Glo® reagent to the cell plates. Luminescence was read in the SpectraMax M5 microplate reader. The concentration of compound inhibiting cell viability by 50% was determined using a 4-parametric fit of the normalized dose response curves.
A general note: ATP-based viability assays read luminescence as a measure of living cells.

Sequence of PRMT5/MEP50 (O14744 other isoform, or with tags, fused parts or gaps): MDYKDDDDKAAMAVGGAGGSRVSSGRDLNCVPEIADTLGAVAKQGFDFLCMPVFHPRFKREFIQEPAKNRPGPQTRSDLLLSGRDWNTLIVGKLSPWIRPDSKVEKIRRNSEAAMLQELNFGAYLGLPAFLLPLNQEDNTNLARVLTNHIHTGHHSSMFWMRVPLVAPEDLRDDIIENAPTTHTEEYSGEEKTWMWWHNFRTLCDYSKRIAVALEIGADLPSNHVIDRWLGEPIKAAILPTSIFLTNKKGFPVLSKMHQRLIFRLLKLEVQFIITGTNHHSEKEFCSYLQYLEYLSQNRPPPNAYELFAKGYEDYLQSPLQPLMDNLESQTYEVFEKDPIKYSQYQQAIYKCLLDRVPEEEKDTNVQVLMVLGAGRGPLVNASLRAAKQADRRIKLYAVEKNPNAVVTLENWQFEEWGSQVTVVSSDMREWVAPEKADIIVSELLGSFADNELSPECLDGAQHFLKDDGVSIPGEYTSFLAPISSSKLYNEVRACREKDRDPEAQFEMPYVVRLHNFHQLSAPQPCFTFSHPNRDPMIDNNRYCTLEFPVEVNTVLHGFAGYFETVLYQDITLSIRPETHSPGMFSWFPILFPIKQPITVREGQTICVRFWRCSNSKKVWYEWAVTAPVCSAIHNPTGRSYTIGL
Sequence of PRMT5/MEP50 (Q9BQA1 other isoform, or with tags, fused parts or gaps partner): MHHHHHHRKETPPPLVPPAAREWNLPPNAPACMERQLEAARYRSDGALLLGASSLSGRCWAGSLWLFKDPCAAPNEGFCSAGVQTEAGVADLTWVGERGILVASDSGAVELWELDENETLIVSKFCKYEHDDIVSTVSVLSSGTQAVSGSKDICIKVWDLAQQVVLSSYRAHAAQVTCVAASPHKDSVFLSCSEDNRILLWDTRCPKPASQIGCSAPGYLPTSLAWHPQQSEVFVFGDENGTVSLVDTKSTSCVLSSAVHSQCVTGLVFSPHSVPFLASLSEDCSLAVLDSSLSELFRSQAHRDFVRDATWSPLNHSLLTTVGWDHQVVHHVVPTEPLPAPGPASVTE

A word on the IC50: it is the concentration needed to halve the response being measured. Broadly, the EC50 is the concentration giving half of the maximal effect. As to `COc1ccc2[nH]c(CCC(=O)NC[C@H](O)CN3CCc4ccccc4C3)nc2c1` [Compound 249], the IC50 at PRMT5/MEP50 is less than 100 nM. In addition, the EC50 in assay [1] is less than 100 nM; in the assay on Z-138 cell line, 1 to 10 µM.

On to `Cc1ccc2[nH]c(CCC(=O)NC[C@@H](O)CN3CCc4ccccc4C3)nc2c1` [Compound 207], for which the half-inhibitory concentration (IC50) on PRMT5/MEP50 was in the range of 101 to 1000 nM. The half-maximal effective concentration (EC50) in assay [1] was 101 to 1000 nM; with Z-138 cell line, 10 to 50 µM.

`O=C(COc1nc2ccccc2[nH]1)NC[C@H](O)CN1CCc2ccccc2C1` [Compound 223]: the concentration for half-maximal inhibition (IC50) on PRMT5/MEP50 is 101 to 1000 nM. Besides, the results for the half-maximal effective concentration (EC50) (in assay [1]; with Z-138 cell line) were 101 to 1000 nM and 1 to 10 µM, respectively.

In the case of `O=C(CCc1nc2cc(F)ccc2[nH]1)NC[C@@H](O)CN1CCc2ccccc2C1` [Compound 213], the half-inhibitory concentration (IC50) at PRMT5/MEP50 was in the range of 101 to 1000 nM. In addition, the half-maximal effective concentration (EC50) in assay [1] is 101 to 1000 nM; in the assay on Z-138 cell line it was greater than 20 µM.

`O=C(CCn1cnc2ccccc21)NC[C@@H](O)CN1CCc2ccccc2C1` [Compound 206]: the IC50 at PRMT5/MEP50 was 1000 to 10000 nM. Besides, the EC50 was greater than 1000 nM in assay [1] and greater than 20 µM in the assay with Z-138 cell line.

`CN(C[C@H](O)CN1CCc2ccccc2C1)C(=O)CCc1nc2ccccc2[nH]1` [Compound 228]: the 50% inhibitory concentration (IC50) on PRMT5/MEP50 is less than 100 nM. Moreover, the half-maximal effective concentration (EC50) in assay [1] is less than 100 nM; with Z-138 cell line, 0.101 to 1 µM.

Take `CN(C[C@@H](O)CN1CCc2ccccc2C1)C(=O)CCc1nc2ccccc2[nH]1` [Compound 209]: the 50% inhibitory concentration (IC50) on PRMT5/MEP50 fell in the range of 101 to 1000 nM. Besides, the half-maximal effective concentration (EC50) in assay [1] fell in the range of 101 to 1000 nM; in the assay with Z-138 cell line, 10 to 50 µM.

As for `CC1NCCCC1c1ccccc1OCC(=O)NC[C@@H](O)CN1CCc2ccccc2C1` (stereo partly drawn) [Compound 254], the half-maximal inhibitory concentration (IC50) on PRMT5/MEP50 is 101 to 1000 nM. The EC50 is greater than 1000 nM in assay [1] and 10 to 50 µM with Z-138 cell line.

Consider `CN1CCC(CN(C)S(=O)(=O)c2ccccc2OCC(=O)NC[C@@H](O)CN2CCc3ccccc3C2)C1` (stereo partly drawn) [Compound 238], for which the 50% inhibitory concentration (IC50) on PRMT5/MEP50 was less than 100 nM. In addition, the concentration giving a half-maximal response (EC50) in assay [1] was less than 100 nM; in the assay on Z-138 cell line, 0.101 to 1 µM.

As for `O=C(COc1cccc(C(=O)NCCc2ncc[nH]2)c1)NC[C@@H](O)CN1CCc2ccccc2C1` [Compound 267], the IC50 on PRMT5/MEP50 was 101 to 1000 nM. Also, the half-maximal effective concentration (EC50) in assay [1] is greater than 1000 nM; in the assay with Z-138 cell line, greater than 20 µM.

For the compound `O=C(COc1ccccc1[C@H]1CCCNC1)NC[C@H](O)CN1CCc2ccccc2C1` [Compound 261], the concentration for half-maximal inhibition (IC50) on PRMT5/MEP50 is less than 100 nM. The figures for the EC50 (in assay [1]; with Z-138 cell line) were 101 to 1000 nM and 1 to 10 µM, respectively.

Take `CC1CN(S(=O)(=O)c2ccccc2OCC(=O)NC[C@@H](O)CN2CCc3ccccc3C2)CCN1C` (stereo partly drawn) [Compound 211]: the IC50 on PRMT5/MEP50 fell in the range of 1000 to 10000 nM. Further, the EC50 is greater than 1000 nM in assay [1] and greater than 20 µM in the assay on Z-138 cell line.

Consider `O=C(CCc1ncc[nH]1)NC[C@H](O)CN1CCc2ccccc2C1` [Compound 240], for which, at PRMT5/MEP50, the IC50 lay in the range of 101 to 1000 nM. The results for the EC50 (in assay [1]; in the assay on Z-138 cell line) were 101 to 1000 nM and 10 to 50 µM, respectively.

Consider `CN1CC(CN(C)S(=O)(=O)c2ccccc2OCC(=O)NC[C@@H](O)CN2CCc3ccccc3C2)C1` [Compound 257], for which the IC50 at PRMT5/MEP50 is less than 100 nM. Also, the EC50 in assay [1] is less than 100 nM; with Z-138 cell line, 0.101 to 1 µM.

With `O=C(COc1ccccc1S(=O)(=O)N1CCNC(CO)C1)NC[C@@H](O)CN1CCc2ccccc2C1` (stereo partly drawn) [Compound 217], the IC50 on PRMT5/MEP50 was in the range of 101 to 1000 nM. In addition, the half-maximal effective concentration (EC50) in assay [1] is 101 to 1000 nM; in the assay with Z-138 cell line, greater than 20 µM.

For the compound `CNC1CN(S(=O)(=O)c2ccccc2OCC(=O)NC[C@@H](O)CN2CCc3ccccc3C2)CC1O` (stereo partly drawn) [Compound 246], the IC50 at PRMT5/MEP50 is less than 100 nM. In addition, the values for the concentration giving a half-maximal response (EC50) (in assay [1]; in the assay on Z-138 cell line) were 101 to 1000 nM and greater than 20 µM, respectively.

With `O=C(COc1cccc(-c2c[nH]cn2)c1)NC[C@@H](O)CN1CCc2ccccc2C1` [Compound 195], on PRMT5/MEP50, the IC50 was 1000 to 10000 nM. Besides, the results for the half-maximal effective concentration (EC50) (in assay [1]; with Z-138 cell line) were greater than 1000 nM and greater than 20 µM, respectively.

As for `O=C(CNc1nc2ccccc2[nH]1)NC[C@H](O)CN1CCc2ccccc2C1` [Compound 239], on PRMT5/MEP50, the IC50 was less than 100 nM. Also, the values for the EC50 (in assay [1]; in the assay on Z-138 cell line) were less than 100 nM and 1 to 10 µM, respectively.
